What was measured:
immature female rats = test: Effect on uterine wet weights in immature female rats; format: in vivo, rat
Protocol: Animals were treated once per day by gavage for three days. Following euthanasia on day four (24 h after the last dose) the uteri were removed, stripped of remaining fat and mesentery and weighed. The dose of the compound of example 3 chosen (50 mg/kg) was 500 fold higher than the efficacious dose in the above experiments.

HLA-B27 rats [1] = test: Histological scoring of disease severity in the colon of HLA-B27 rats; format: in vivo, rat; settings: for Fibrosis (0-2) / Inflammation (0-3) / Lesion depth (0-2) / Total score / Ulceration (0-2): histological score, colon
Protocol: (§1) A representative NF-kB selective ER ligand was evaluated in the HLA rat standard pharmacological test procedure, which emulates inflammatory bowel disease in humans. The following briefly describes the procedure used and results obtained. Male HLA-B27 rats were obtained from Taconic and provided unrestricted access to a food (PMI Lab diet 5001) and water. At the start of the study, rats were 22-26 weeks old.
(§2) Rats were dosed orally once per day for 5 days with one of the regimens listed below. There were five rats in each group and the last dose was administered two hours before euthanasia. • vehicle (50% DMSO/50% Dulbecco's PBS) • 17α-ethinyl-17β-estradiol (EE, 10 μg/kg) • Compound A (150 μg/kg) • Compound A (50 μg/kg) • Compound A (1.5 μg/kg) Stool quality was observed daily and graded according to the following scale: Diarrhea=3; soft stool=2; normal stool=1. At the end of the study, serum was collected and stored at −70° C. A section of colon was prepared for histological analysis and an additional segment was analyzed for myeloperoxidase activity.
Histological analysis. Colonic tissue was immersed in 10% neutral buffered formalin. Each specimen of colon was separated into four samples for evaluation. The formalin-fixed tissues were processed in a Tissue Tek vacuum infiltration processor (Miles, Inc; West Haven, Conn.) for paraffin embedding. The samples were sectioned at 5 μm and then stained with hematoxylin and eosin (H&E) for blinded histologic evaluations using a scale modified after Boughton-Smith. Sections of colonic tissue were evaluated for several disease indicators and given relative scores. After the scores were completed the samples were unblinded, and data were tabulated and analyzed by ANOVA linear modeling with multiple mean comparisons.

HLA-B27 rats [2] = test: Myeloperoxidase activity in colon of HLA-B27 rats (neutrophil infiltration); format: in vivo, rat
Protocol: as §1
Rats were dosed orally once per day for 5 days with one of the regimens listed below. […] A section of colon was prepared for histological analysis and an additional segment was analyzed for myeloperoxidase activity.
Myeloperoxidase activity [Bradley, et al., Blood 60: 618-622 (1982)]. Myeloperoxidase activity was assessed as a measure of neutrophil infiltration into the colon. […]
Tissue was resuspended and homogenized in 2.5ml (1:5 w/v) of 50 mM H2KPO4 with 10 mM EDTA and 0.5% Hex Ammonium Bromide to help solubilize the intracellular MPO. […] The supernatant was analyzed following these steps.
The test mixture was prepared by adding 2.9 ml of 50 mM H2KPO4 with 0.167 O-Dianisidine/ml with 0.0005% H2O2 into a reaction tube. […] OD was measured every 2 minutes reaction time at 460 nm against a blank containing 2.9 ml of the reaction mixture and 100 μl of the 0.5% ammonium bromide solution. […]

HLA-B27 rats [3] = test: Stool character in the HLA rat standard pharmacological test procedure; format: in vivo
Protocol: as §1, §2

[4] = 1.5 mcg/kg orally once per day for 5 days
[5] = 50 mcg/kg orally once per day for 5 days
[6] = 150 mcg/kg orally once per day for 5 days

## C#C[C@]1(O)CC[C@H]2[C@@H]3CCc4cc(O)ccc4[C@H]3CC[C@@]21C [17α-ethinylestradiol, 17α-ethinyl-17β-estradiol, reference compound]
Immature female rats; 1.5 μg/kg (EC80)
  Uterine wet weight: significantly stimulated

## COc1cc(OC)cc(N2CCN(C(=O)[C@](C)(C#N)[C@H](c3ccccc3OC)c3cccc4ccccc34)CC2)c1 [Example 4, (S)-3-[4-(3,5-dimethoxyphenyl)piperazin-1-yl]-2-[(S)-(2-methoxyphenyl)(1-naphthyl)methyl]-2-methyl-3-oxopropanenitrile]
other
  melting point: 186 to 188 °C

## CC1c2cc(F)ccc2-c2ccccc2N1S(=O)(=O)c1ccc(O)cc1 (centres unmarked) [Example 3, 4-[(8-Fluoro-6-methylphenanthridin-5(6H)-yl)sulfonyl]phenol]
HLA-B27 rats [1]; 50 μg/kg oral
  All disease parameters measured (ulcerations, lesions, fibrosis, inflammatory cells), colon histology: significantly improved
HLA-B27 rats [1]; 150 μg/kg oral
  All disease parameters measured (ulcerations, lesions, fibrosis, inflammatory cells), colon histology: significantly improved
HLA-B27 rats [1]; [4]
  Fibrosis (0-2): 0.94 ± 0.52
  Inflammation (0-3): 2.50 ± 0.35
  Lesion depth (0-2): 1.1 ± 0.35
  Total score: 5.75 ± 1.41
  Ulceration (0-2): 1.25 ± 0.24
HLA-B27 rats [1]; [5]
  Fibrosis (0-2): 0.38 ± 0.32
  Inflammation (0-3): 1.69 ± 0.52
  Lesion depth (0-2): 0.56 ± 0.24
  Total score: 3.25 ± 1.0
  Ulceration (0-2): 0.63 ± 0.25
HLA-B27 rats [1]; [6]
  Fibrosis (0-2): 0.19 ± 0.24
  Inflammation (0-3): 1.50 ± 0.20
  Lesion depth (0-2): 0.31 ± 0.24
  Total score: 2.38 ± 0.83
  Ulceration (0-2): 0.38 ± 0.32
HLA-B27 rats [2]; 150 μg/kg oral
  MPO activity in colon: effectively inhibit MPO activity
HLA-B27 rats [2]; the lower doses (50 and 1.5 μg/kg) oral
  MPO activity in colon: no effect
HLA-B27 rats [3]; 1.5 μg/kg oral
  Stool score: No effect
HLA-B27 rats [3]; 50 μg/kg oral
  Stool score: No effect
HLA-B27 rats [3]; 150 μg/kg oral, after 4 days of treatment
  Stool score: improvement in stool score
other
  melting point: 188 °C
Immature female rats; 50 mg/kg orally once per day for three days
  Uterine wet weight: no increase

Source: US20050119276A1, “Methods of treating inflammatory bowel disease using NF-kB inhibitors” (Wyeth, priority 2003, published 2005)
